Measurements reported in PubChem BioAssay AID179 (DTP/NCI, 2004).
Calls of active or inactive are those of the source.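 Rule for the calls: active = compounds giving half or more protection of infected cells from virus-caused growth loss, again on retest; inactive = the rest.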

Tested on: CEM cells HIV-1 protection, formazan growth assay
Experiment: NCI AIDS Antiviral Assay
Details: for IC50: measured here: growth of uninfected CEM cells
How it was run: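 CEM (human) cells, HIV-1 infected vs uninfected, 5-point dosing, formazan growth read-out. Retest threshold 50% protection.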

SMILES	outcome	EC50 [µM]	IC50 [µM]
Cc1nc2c(nc1C)C(=O)C(Br)=C(N)C2=O	inactive	–	–
O=C(O)/C=C/c1ccc[c]([Sb](=[O])([OH])[OH])c1	–	2.82	> 200
Cn1c(=O)c2c(nc(C[N+]3([O-])CCOCC3)n2C)n(C)c1=O	–	> 83.2	> 83.2
O=C(N/N=C/c1cc(Cl)cc(Cl)c1[OH2+])c1ccncc1.O=S(=O)([O-])[O-].[Fe+2]	inactive	–	–
CN(C)C=Nc1cccc2nsnc12	–	> 200	> 200
C[S+]1CC2C3CC(C#N)C(C3)C2C1 (configuration not stated)	–	> 275	> 275
CSc1nc(Br)nc2ncn(C3CC(Oc4ccc(C)cc4)C(COc4ccc(C)cc4)O3)c12 (configuration not stated)	–	> 200	44.7
CC1C2=C(CN3C[C@H](C)CCC13)C1CC3C(C[C@@H](O)C4C[C@@H](O)CC[C@]34C)C1CC2 (some centres not stated)	–	> 22.9	> 22.9
CN(C)c1nc(=Nc2ccc3c(c2)OCO3)ss1	inactive	–	–
Cc1ncc(-c2nnnn2-c2ccccc2)c(C(=O)O)n1	–	> 200	> 200
CC(=O)CCn1[nH]c(=O)c(Cl)c(Cl)c1=O	–	> 1000	> 1000
CCCc1c2c([nH]c(=O)c1C)C(=O)c1[nH]c(=O)c(C)c(CCC)c1C2=O	inactive	–	–
CC1C(=O)NC(=O)CC(=O)NC1=O	–	> 1350	> 1350
COc1ccc(/C=C2\CCCC(C(NO)c3ccc(OC)cc3)C2=NO)cc1 (configuration not stated)	–	> 19.1	> 19.1
COc1ccccc1NC(=S)N/C=C(\C#N)C(=O)c1ccc2ccccc2c1	–	> 200	37.2
CC(=O)c1nc2ccccc2n1CC(=O)c1ccc([N+](=O)[O-])cc1	–	> 200	7.59
CC1=NC2(CCCCC2)N(Cl)C(=O)C1SC#N (configuration not stated)	–	> 200	17.8
COc1ccc2c(N=[N+]=[N-])c(-c3ccccc3)c(=O)oc2c1	inactive	–	–
NCCS/C=C\C(=O)OCc1ccc(Br)cc1	–	> 708	64.6
Cc1cc(N=O)ccc1O	–	> 200	3.63
NNc1ncnc2c1ncn2C1OC(CO)CC1F (configuration not stated)	–	> 148	> 148
O=C1c2ccccc2C(=O)c2c1ccc1c2N=C(c2ccc(F)cc2)CC(c2ccc(Cl)c(Cl)c2)N1 (configuration not stated)	–	> 14.1	> 14.1

SMILES	outcome	EC50 [µM]	IC50 [µM]
CC(O)CN(CC(C)O)N(CC(C)O)CC(C)O (configuration not stated)	–	> 955	219
C=CCNC(=O)N1CC(C)C(=O)Nc2ccccc21 (configuration not stated)	–	> 200	> 200
COc1ccc(Cc2c(-c3ccc(C)cc3)n[nH]c(=O)c2C2C(=O)N(c3ccccc3)N=C2c2ccccc2)cc1 (configuration not stated)	–	> 200	38
CC(=O)C(C)(O)C(OP(=O)(O)O)c1ccccc1 (configuration not stated)	–	> 200	> 200
COc1cc(-c2ccccc2)cn2c1nc1ccccc12	–	> 200	11.5
COC(=O)/C(=N\NC(N)=S)C(C#N)c1ccccc1 (configuration not stated)	–	> 129	> 129
COc1cc2c3cc1Oc1c(OC)c(OC)cc4c1[C@H](Cc1cc5c(c(c1)Oc1ccc(cc1)CC3N(C)CC2)OCO5)N(C)CC4 (some centres not stated)	inactive	–	–
[N-]=[N+]=Nc1ccc(S(=O)(=O)Oc2cc(OS(=O)(=O)c3ccc(N=[N+]=[N-])cc3)cc(OS(=O)(=O)c3ccc(N=[N+]=[N-])cc3)c2)cc1	–	> 4.07	> 4.07
COC(=O)C1C(=O)N(C)c2cc(C)c(C)cc2C1(C)C (configuration not stated)	–	> 200	> 200
COc1cc2c(cc1OC)C(Cc1ccccc1CCCl)=NCC2	–	> 200	29.5
O=C(O)c1oc2cccc3c2c1CCC3	inactive	–	–
COC(=O)N/N=C/c1oc(-c2cccc([N+](=O)[O-])c2)c(-c2cccc([N+](=O)[O-])c2)c1[N+](=O)[O-]	–	> 79.4	> 79.4
Clc1ccccc1C(SCc1ccccc1)SCc1ccccc1	–	> 200	195
O=C1C(=O)N(c2cccc(C(F)(F)F)c2)C(=O)C(=O)C1c1nc2ccccc2s1	–	> 44.7	> 44.7
OCC1OCOC2COCOC12 (configuration not stated)	–	> 200	> 200
CC1(C)CC(=O)C(/C(=N/NC(=S)NN)C(=O)Nc2nc3ccc([N+](=O)[O-])cc3s2)C(=O)C1	–	> 53.7	> 53.7
O=c1[nH]c2ccccc2nc1/C=C/n1c(=S)[nH]c2ccccc21	–	> 200	> 200
[N-]=[N+]=Nc1c([N+](=O)[O-])c(=O)n2c3c(cccc13)CCC2	inactive	–	–
COc1cc(C=O)c(-c2cc3c(cc2C=O)OCO3)c(OC)c1OC	–	> 145	51.3
COC1/C=C/OC2(C)Oc3c(C)c(O)c4c(O)c(cc(OCC(=O)N(C)C5CCCC5)c4c3C2=O)NC(=O)/C(C)=C/C=C/C(C)C(O)C(C)C(O)C(C)C(OC(C)=O)C1C (configuration not stated)	–	> 200	28.8
CC(=O)O[C@H]1[C@H](OC(C)=O)[C@@H](CN=[N+]=[N-])OCO[C@@H]1CN=[N+]=[N-]	inactive	–	–
COc1cc(/C=C(\C#N)C(=O)c2ccccc2)cc(OC)c1OC	–	> 16.2	> 16.2

SMILES	outcome	EC50 [µM]	IC50 [µM]
Cc1ccc(S(=O)(=O)Nn2c3c(cc(C#N)c2=O)CCCC3)cc1	–	> 200	> 200
CC1(C)OC2OC(COC(=O)c3ccc(C#N)cc3)C3OC(C)(C)OC3C2O1 (configuration not stated)	inactive	–	–
N#Cc1[nH]c(=S)[nH]c1N	–	> 200	117
C=CC12CN3C4C3C1C1(CCC42)C(=O)N(COCC[Si](C)(C)C)c2ccccc21 (configuration not stated)	–	> 63.1	25.7
COc1cc(C(=O)N/N=C/N(C)C)cc(OC)c1OC	–	> 200	> 200
Cc1c(C)c(C)n(C2OC(CO)C(O)C(O)C2O)c(=S)c1C#N (configuration not stated)	–	> 100	> 100
NC(=O)CSc1c2cc(O)ccc2nc2ccc(O)cc12	–	> 200	36.3
CCOC(=O)C(=O)Nc1c(N(CC)CC)n2ccccc2nc1=O	–	> 676	> 676
COc1ccc(OC)c(CCc2ccccc2CC(=O)O)c1	–	> 832	501
CCOC(=O)c1ccc(C(=O)OCC)n1-c1cc2cc(c1)CSCc1cc(cc(-n3c(C(=O)OCC)ccc3C(=O)OCC)c1)CSC2	–	> 200	> 200
N#Cc1c(-c2ccco2)cc(-c2ccc(NCc3nc4ccccc4[nH]3)cc2)nc1N	–	> 12.9	> 12.9
Nc1ccc(N=Nc2ccc(/C=C/c3ccc(N=Nc4ccc(N)c5ccccc45)cc3S(=O)(=O)O)c(S(=O)(=O)O)c2)c2ccccc12	–	> 50.1	37.2
Cc1ccc(S(=O)(=O)Oc2ccc3oc4c(CO)ccc(NCCN(C)C)c4c(=O)c3c2)cc1	–	> 38.9	6.92
O=[N+]([O-])c1cccc(N=Cc2ccc(Cl)cc2)c1	–	> 200	123
CC(=O)OC(/C=C1/C=CC(=O)O1)COC(=O)c1ccccc1 (configuration not stated)	–	> 309	5.89
O=C1C(=O)N(c2ccc(Cl)c(Cl)c2)C(=O)C(=O)C1c1nc2ccccc2s1	inactive	–	–
Cc1cn(CC2=NCC(C)(C)CN2)c(=O)[nH]c1=O	–	> 200	> 200
Cc1ccnc2c1ccc1nc3ccccc3n12	–	> 200	> 200
CN(C)CCn1c(=O)c2ccc(NCCNCCO)c3c(=O)c4ccccc4n(c1=O)c23	–	> 0.2	0.0112
O=C1NC2CC=CCC12 (configuration not stated)	–	> 2040	> 2040
CC(C)(C)C(=O)C(C(=O)C(C)(C)C)C(=O)C(C)(C)C	inactive	–	–
CCCc1cc(=O)oc2c3c(c4c(c12)OC(C)(C)CC4)O[C@H](C)[C@@H](C)[C@@H]3O	–	0.316	8.13

SMILES	outcome	EC50 [µM]	IC50 [µM]
CCn1c(O)c(C=Nc2ccccc2)s/c1=N/Nc1nc(-c2ccccc2)cs1	–	> 200	24.5
CC(NC(=O)C(Cc1ccc(OC(=O)c2ccccc2)cc1)NC(=O)OC(C)(C)C)C(=O)NCC(=O)NC(Cc1ccccc1)NC(=O)OCc1ccccc1 (configuration not stated)	–	> 200	110
O=[N+]([O-])C(=C(Nc1ccccc1)Nc1ccccc1)/C(Cl)=C(\Cl)Br	–	> 200	7.41
N=c1oc2cc(O)ccc2cc1C(=O)NCc1ccccc1	–	> 200	20
Cc1oc(N)c(S(=O)(=O)c2cc3ccccc3n(O)c2=N)c1C	–	> 200	95.5
COC(=O)n1c(=O)n(-c2ccccc2)c(=O)n1C(=O)OC	–	155	195
CCc1ccc(/C(=N\NC(N)=S)C2CC2)cc1	–	> 200	110
O=S(=O)(NCCSSCCNS(=O)(=O)c1ccccc1)c1ccccc1	–	> 200	13.5
CC(C)c1cccc(C(C)C)c1N=C(N)C#N	–	> 195	93.3
CCOC(=O)Cc1nc2nn(Cc3ccccc3)cc2c(=O)[nH]1	–	> 200	> 200
O=S(=O)(c1ccccc1)C(c1ccc2ccccc2n1)S(=O)(=O)c1ccccc1	–	> 200	41.7
Nc1cc2[nH]c(=O)c(=O)[nH]c2cc1N	–	> 200	63.1
C/C(=N\NC(=S)NNC(=S)N(C)c1ccccc1)c1ccccn1	–	> 52.5	0.427
O=C(/C=C/c1ccccc1)CSc1ncn[nH]1	–	> 200	12
OC(c1cc2ccccc2[nH]1)C(O)(c1cc2ccccc2[nH]1)c1cc2ccccc2[nH]1 (configuration not stated)	–	> 12.9	11
CCN(CC)CCC1CCCCN1CC(=O)N1c2cc(Cl)ccc2NC(=O)CC1C (configuration not stated)	–	> 200	> 200
CN(C)c1ccc(-c2[nH]c(=O)c3ccccc3[n+]2C)cc1	–	> 200	66.1
O=C(CSc1nnc(Cc2ccccc2)o1)Nc1ccc(Cl)cc1[N+](=O)[O-]	–	> 617	25.1
COc1ccc2nc(N/N=C/c3sccc3C)cc(C)c2c1	–	> 200	17.4
CCOC(=O)c1nc2cc(N3CCOCC3)c(F)cc2[nH]c1=O	–	> 200	141
CC1=NN(c2ccc(S(=O)(=O)O)cc2)C(=O)C1N=Nc1ccc(-c2ccc(N=Nc3ccc(OS(=O)(=O)c4ccc(C)cc4)cc3)c(S(=O)(=O)O)c2)cc1 (configuration not stated)	–	100	151
